Reference: patent US5470877A, “Uses of perillic acid methyl ester” (Wisconsin Alumni Research Foundation, priority 1994, dated 1995)
Where “and” joins values, the source holds several entries; their conditions need not be identical. Equal values may be shown once.

Key:
HT29 cells = experiment: Inhibition of HT29 colon adenocarcinoma cell growth/proliferation; assay type: cell-based, human; conditions: for Rank order, inhibition of HT-29 tumor cell proliferation: 1 = greatest inhibition, 5 = least inhibition
Protocol: (§1) We examined the effect of several of the terpenes on certain types of cell growth. […] Additionally, growth of HT29 (human colon adenocarcinoma) cells was inhibited by 80% by 1 mM perillyl alcohol.

DMBA rat mammary tumor = experiment: Dietary perillic acid methyl ester-induced rat mammary tumor regression; assay type: in vivo, Wistar-Furth rat; conditions: 0.5% perillic acid methyl ester diet, individual rat tumors
Protocol: (§2) Inbred female Wistar-Furth rats were given 50 mg/kg DMBA at 50-55 days of age. Upon development of a mammary tumor with the largest diameter≥10 mm, the rat was assigned to 0.5% perillic acid methyl ester diet and fed ad libitum. The 0.5% perillic acid methyl ester diet (weight compound/weight ground Teklad rat/mouse 4% meal/chow) was prepared fresh every 7-10 days. Fresh diet was given to rats daily. All rats were weighed and palpated weekly. The study was terminated at 6 weeks after initial diet administration.

rat mammary carcinoma = experiment: Comparison of dietary perillyl alcohol and perillic acid methyl ester as inducers of rat mammary carcinoma regression; assay type: in vivo, Wistar-Furth rat; conditions: 0.5% PAME diet
Protocol: as §2, with “administration. The following tumor regression data was acquired:” for “administration.”
We compared the effects of PAME and POH in terms of their ability to regress rat mammary carcinomas. Table 8 records our comparison. In summary, a 0.5% PAME diet was effective, while a 0.5% POH diet was only 10% effective. Diets of 2% POH were roughly 64-70% effective. While 2% POH is tolerated by a mammal, on a practical level PAME is preferred because a lower dose is sufficient.

21-26 kDa proteins [1] = experiment: Protein isoprenylation inhibition in NIH3T3 cells (SDS-PAGE fluorography); assay type: cell-based, mouse; conditions: for isoprenylation of the 21-26-kDa bands, % of the control: NIH3T3, gel slicing and scintillation counting
Protocol: "Isoprenylation" is the addition of a multiple of the 5 carbon isoprene unit to a protein. Our experiments in isoprenylation are reported at Crowell, et al. 1991, J. Biol. Chem. 266:17679-17685. To test whether a specific monoterpene affects isoprenylation of proteins in cells, […] were incubated with a radioactive isoprene precursor and 0-5 mM of the test monoterpene and then subjected to SDS-PAGE. Because they carried a radioactive label, isoprenylated proteins were visualized by fluorography. As a control, cells were incubated without the monoterpene.
Cells were harvested after trypsin treatment, washed twice with phosphate-buffered saline, suspended in electrophoresis sample buffer (Laemmli, U.K., 1970, Nature 227:680-685), and either analyzed immediately or stored at -20° C. Whole cell extracts were analyzed by SDS-PAGE on 16-cm×18-cm×0.75-mm gels by the method of Laemmli (supra). The acrylamide concentrations were 5% for the stacking gel and 12% for the separating gel. Gels were stained with Coomassie Brilliant Blue, equilibrated for 20 min in Amplify (Amersham Corp.) fluorographic reagent, dried under vacuum at 65° C., and exposed to preflashed Kodak X-Omat AR film as described by Laskey and Mills (1975, Eur. J. Biochem, 56:335-341). Some fluorograms were analyzed further by densitometry. Where indicated, gels were sliced, dissolved at 50° C. for 3 hours in 0.5 ml of water+0.5 ml of Solvable (Amersham), and then analyzed by scintillation spectrometry in 10 ml of Atom light (Amersham) mixture. Protein content was measured by the method of Lowry, et al. (1951, J. Biol. Chem. 193:265-275).
FIG. 1 depicts the structures of certain monoterpenes.
The degree of isoprenylation was evaluated by the amount of labeled protein present in the 21-26 kDa range, as evidenced by fluorography.

NIH3T3 cells = experiment: NIH3T3 cell growth inhibition (FIG. 3); assay type: cell-based, mouse; conditions: NIH3T3 (murine) cells
Protocol: (§3) NIH3T3 (mouse embryo) cells were obtained from the American Type Culture Collection and were grown in Dulbecco's modified Eagle's medium supplemented with 10% calf serum. M600B immortalized human mammary epithelial cells (Stampfer, M.R., 1985, J. Tissue Culture Methods 9:107-115) were, obtained from Dr. Martha Stampfer and were grown in supplemented HCDB 170 medium (Hammond, et al. (1984) Proc. Natl. Acad. Sci U.S.A. 81:5435-5439), as described previously (Stampfer, et al. (1985) Proc. Natl. Acad. Sci U.S.A. 82:2394-2398; Eldridge, et al. (1989) Cancer Res. 49:4326-4331).
(§4) All cells were maintained in 100-mm dishes at 37° C. in a humidified 5% CO2 atmosphere. Viable cells were distinguished from nonviable cells by counting azure II/methylene blue-stained colonies 10 days after the cells were plated at a density of 100 cells per dish. Trypan blue exclusion was measured by incubating cells for 1 min with one drop of trypan blue per 10 ml of cells. Viable (colorless) and nonviable (blue) cells were then counted on a hemocytometer.
as §1

M600B cells = experiment: M600B cell growth inhibition (FIG. 4); assay type: cell-based; conditions: M600B (human) cells
Protocol: as §3, §4, §1

21-26 kDa proteins [2] = experiment: Protein isoprenylation inhibition in M600B human mammary epithelial cells
Protocol: To test whether a specific monoterpene affects isoprenylation of proteins in cells, cell extracts were incubated with a radioactive isoprene precursor and 0-5 mM of the test monoterpene and then subjected to SDS-PAGE. Because they carried a radioactive label, isoprenylated proteins were visualized by fluorography. As a control, cells were incubated without the monoterpene.
For both isoprenylation and cell growth assays, the monoterpenes were mixed with prewarmed (37° C.) medium containing 10% calf serum, and then the monoterpene-containing medium was added to cells. The relative effects of various monoterpenes on protein isoprenylation were compared by comparison of the relative intensity of bands on fluorograms from [^14 C]-mevalonate-labelled cells treated with each monoterpene.
Samples from each cell line were then analyzed on the same gel.

[3] = tested on: DMBA-induced rat mammary carcinomas; experiment: Regression of DMBA-induced mammary carcinomas, pair-feeding study; assay type: in vivo, Wistar-Furth rat
Protocol: We used Wistar-Furth female rats for in vivo studies. Wistar-Furth female rats were obtained from Harlan Sprague-Dawley, Inc., (Madison, Wis.). All rats, arriving at 43-48 days of age, were housed at four rats per cage in wire-bottom metal cages and all were maintained with a light/dark cycle of 12 hours. Rats were provided Teklad Lab blox chow and acidified water ad libitum.
After one week of acclimation, the carcinogen DMBA was administered to the rats, which were 50-55 days old at this point. The DMBA was dissolved in a stock solution of 20 mg DMBA/ml sesame oil, heated and allowed to cool to room temperature before administration. DMBA (Eastman Kodak, Rochester, N.Y.) was given as a single gastric intubation of 50 mg DMBA/kg rat body weight.
In the pair-feeding study, a group of 70 mammals was treated with DMBA. Beginning four weeks post carcinogen administration, mammals were weighed and palpated weekly. Upon palpation of the first mammary carcinoma (diameter≥3 mm), mammals were randomly assigned to control or 2.5% (w/w) perillyl alcohol diet and pair-fed.
Perillyl alcohol (>96% pure by GC analysis, Aldrich, Milwaukee, Wis.) and Teklad 4% mouse/rat diet meal were thoroughly mixed and stored at -20° C. Fresh diets were made every 7-10 days. All mammals were provided fresh diet daily to minimize evaporation of the monoterpenes. For pair-feeding, the quantity of diet consumed by the monoterpene-fed mammals was measured every 24 hours and the assigned partner was pair-fed accordingly.
In the pair-feeding study, all palpable mammary carcinomas were classified as either "primary" tumors (i.e, the first tumor(s) palpated with a minimum diameter of 3 mm) or "secondary" tumors (i.e. a palpable tumor arising after initial diet assignment). At diet assignment, some mammals had more than one primary tumor. All carcinogen-exposed mammals not bearing a first palpable tumor by week 15 post-carcinogen were removed from the experiment. Complete regression of a tumor was defined as non-palpability for a minimum of three consecutive weeks. All mammals in the pair-feeding study were followed for a minimum of 10 weeks post-diet assignment for tumor growth or regression at primary tumor sites and all other mammary glands. The rats were necropsied if moribund. Complete necropsies were performed on all rats at the termination of the study. Greater than 95% of tumors remaining at the autopsy date were diagnosed as mammary carcinomas based on gross and histopathological criteria.

[4] = Plasma metabolite identification and quantitation in rats; assay type: in vivo, Wistar-Furth rat; conditions: rat, in vivo
Protocol: Control animals received oil alone. At the chosen time points, rats were anesthetized with ether and blood was collected into heparinized tubes (Heparin (Sigma, Grade II), at 20 mg/ml in 0.9% saline). Plasma was removed following centrifugation and stored at -20° C.
For quantitation of chronic plasma metabolite levels of perillyl alcohol, female WF rats were housed individually and fed fresh diet daily. The afternoon before blood collection, all rats were given approximately 20 grams of the appropriate diet and allowed to eat ad. libitum for 18 hours. Food consumption data was determined the next morning and the rats were bled within 2 hours following food removal.
Briefly, 5 μl of a 10 mM solution of perillaldehyde was added to 50 μl plasma as an internal standard for quantitation. The plasma was mixed with an equal volume of n-butanol:acetonitrile (1:1, v/v), after which another volume of saturated potassium phosphate was added. After vortexing, the samples were centrifuged and the organic layer removed from the top.
Plasma extracts were analyzed using a Hewlett-Packard 5891 gas chromatograph equipped with a flame-ionization detector or a Hewlett-Packard 5890 chromatograph equipped with a 5971A mass-selective detector, both with 30 m Supelco SPB-5 columns. The temperature program was 90° C. for 4 minutes, increasing by 10° C./minute, followed by 15 minutes at 275° C. The split ratio was 1:10 and the linear velocity was 1.1 ml/minute. Standard curves were generated by adding 5 μl rat plasma. Standards were then extracted and analyzed by capillary gas chromatography. The ratio of the terpene peak area/perillaldehyde peak area versus the concentration of terpene in the sample was plotted.

[5] = in vivo
Protocol: Subjects: The subjects were five females and two males, median age of 32 years (range 23-55) and without illness or laboratory abnormalities.
The custard consisted of dry unflavored custard mix, cold water, cold whole milk, and orange oil. The components were blended at room temperature and then refrigerated for at least 30 minutes prior to ingestion by the subjects. Subjects ingested the orange oil-containing mixture over 2-10 minutes. […] The chemistry panel consisted of: BUN, creatinine, calcium, magnesium, phosphorous, uric acid, total cholesterol, total protein, albumin, total bilirubin, y-glutamyl transpeptidase, alkaline phosphatase, aspartate aminotransferase, and lactate dehydrogenase. Subjects were monitored for toxicity for one week.

[6] = rat, in vivo; cited from earlier work
[7] = in vivo; cited from earlier work
[8] = Chemistry panel and toxicity monitoring in human subjects; conditions: 100 mg/kg d-limonene
Protocol: The custard consisted of dry unflavored custard mix, cold water, cold whole milk, and orange oil. The components were blended at room temperature and then refrigerated for at least 30 minutes prior to ingestion by the subjects. Subjects ingested the orange oil-containing mixture over 2-10 minutes. […] One subject had additional blood draws for metabolite analysis at 1, 2, and 8 h post-ingestion. The chemistry panel consisted of: BUN, creatinine, calcium, magnesium, phosphorous, uric acid, total cholesterol, total protein, albumin, total bilirubin, y-glutamyl transpeptidase, alkaline phosphatase, aspartate aminotransferase, and lactate dehydrogenase. Subjects were monitored for toxicity for one week.

[9] = 6 weeks, second comparison, listed as PAME
[10] = 10% limonene diet or 2.5% POH diet

## C=C(C)C1CC=C(C(=O)OC)CC1 (stereo not drawn) [perillic acid methyl ester]
HT29 cells
  potency in cell proliferation tests versus perillyl alcohol: more potent in cell proliferation, tests than perillyl alcohol
  Rank order, inhibition of HT-29 tumor cell proliferation: 1
HT29 cells; Homo sapiens, HT-29, read-out: IC50 HT29 tumor cell proliferation
  IC50: 50 µM
DMBA rat mammary tumor
  time (of tumor size change): 6 wks and 5 wks and 4 wks and 3 wks and 2 wks
Rat mammary carcinoma
  effectiveness of diet: effective
Rat mammary carcinoma; 6 weeks, second comparison
  no regression (tumors): 10 of 19
  no response: 1
  partial regression >1/2 original diameter (%): 47%
  partial regression >1/2 original diameter (tumors): 9 of 19
  small regression response: 4 of 19
  some growth of tumor: 5 of 19
Rat mammary carcinoma; [9]
  no regression (tumors): 10/19
  no response: 1/19
  partial regression >1/2 original diameter (tumors): 9/19
  small regression response: 4/19
  some growth of tumor: 5/19

## C=C(C)[C@@H]1CC=C(C(=O)O)CC1 [perillic acid]
21-26 kDa proteins [1]; all cell types examined
  inhibition of isoprenylation in all cases examined: inhibition of isoprenylation
HT29 cells
  Rank order, inhibition of HT-29 tumor cell proliferation: 4
NIH3T3 cells
  inhibition of cell growth: significantly inhibited cell growth in a dose-dependent manner
M600B cells
  inhibition of cell growth: significantly inhibited cell growth in a dose-dependent manner
21-26 kDa proteins [2]; 5 mM
  isoprenylation of 21-26 kDa proteins: inhibited significantly

## C=C(C)[C@H]1CC=C(C)CC1 [limonene]
21-26 kDa proteins [1]; 0.5 mM limonene
  isoprenylation of the 21-26-kDa bands, % of the control: ~ 50 % of the control
21-26 kDa proteins [1]; 0.5 mM or 5 mM limonene
  intensity of the 66-, 46-, and 17-kDa bands: not different from that of the control
21-26 kDa proteins [1]; 5 mM limonene
  isoprenylation of the 21-26-kDa bands, % of the control: ~ 25 % of the control
HT29 cells
  Rank order, inhibition of HT-29 tumor cell proliferation: 5
[3]; [10]
  Primary carcinoma complete regression (tumors regressed / tumors): 19/28
  Primary carcinoma regression (%): 68%
  Secondary carcinoma regression (%): 63%
  Secondary carcinoma regression (tumors regressed / tumors): 17/27
  Secondary carcinomas/rat: 1.08
[3]; after initial diet assignment
  development of secondary carcinomas: number of secondary carcinomas was higher in the limonene-fed mammals
[3]; primary carcinoma, footnote: Kaplan-Meier estimate of time when 25% regressed
  Time to Regress (wks): 3.25 wks
[4]
  mM DHPAME: trace
  metabolism at 4 hours: equal amounts of perillic and dihydroperillic acid
  parent in plasma at 24 hours: no limonene was detectable in the plasma
  time parent found in plasma: up to 4 hours
[4]; 30240 min
  Total: 0.19 mM
  mM DHPA: 0.06 ± 0.01 mM
  mM DHPAME: 0.01 ± 0.00 mM
  mM LIM/POH: 0 mM
  mM PA: 0.10 ± 0.02 mM
  mM PAME: 0.02 ± 0.01 mM
[4]; 50400 min
  Total: 0.28 mM
  mM DHPA: 0.09 ± 0.02 mM
  mM DHPAME: 0.01 ± 0.00 mM
  mM LIM/POH: 0 mM
  mM PA: 0.14 ± 0.03 mM
  mM PAME: 0.04 ± 0.01 mM
[4]; 100800 min
  Total: 0.27 mM
  mM DHPA: 0.12 ± 0.01 mM
  mM LIM/POH: 0 mM
  mM PA: 0.13 ± 0.01 mM
  mM PAME: 0.02 ± 0.00 mM
[4]; po, 1000 mg/kg, 4 h
  concentration: 90 ± 20 µM
[5]; human
  time of highest metabolite concentrations: 4 h
[5]
  identity of abundant human metabolite H2: limonene-1,2-diol
  metabolite concentrations at 24 h (8 h in one subject): lower than those at the 4 h time point
[6]
  time of highest concentrations of limonene-derived material: 2 to 12 h
[7]
  side-effects: not without some side-effects
[8]
  gradeable toxicity: No gradeable toxicity was encountered
21-26 kDa proteins [2]; 5 mM limonene
  intensity of the 21-26 kDa bands: marked decrease
21-26 kDa proteins [2]; dose responsive
  concentration required for significant inhibition of protein isoprenylation: at least 1 mM

## C=C(C)C1CC=C(C=O)CC1 (stereo not drawn) [Perillylaldehyde, reference compound]
HT29 cells
  Rank order, inhibition of HT-29 tumor cell proliferation: 3
